Values after ≈ are worked out from the molar mass of the structure shown.
Columns and labels:
[1] = tested on: Bacillus anthracis; assay: Antibacterial activity against Bacillus anthracis Sterne after 16 hrs by modified alamar blue microdilution broth assay; type: functional
[2] = molecular target: T1, Dihydrofolate reductase (Homo sapiens, UniProt P00374); assay: Inhibition of human recombinant DHFR
T1 sequence (P00374 whole entry): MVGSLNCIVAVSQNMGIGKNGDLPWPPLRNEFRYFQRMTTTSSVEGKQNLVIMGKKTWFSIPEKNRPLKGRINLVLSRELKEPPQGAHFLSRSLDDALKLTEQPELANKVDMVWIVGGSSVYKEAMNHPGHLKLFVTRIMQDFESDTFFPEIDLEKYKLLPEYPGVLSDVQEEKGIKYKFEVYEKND

[3] = tested on: Bacillus anthracis; assay: Inhibition of histidine-tagged Bacillus anthracis Sterne recombinant DHFR expressed in Escherichia coli BL21 Star (DE3)pLysS up to 3 mins; conditions: BL21, 0.05 h
[4] = tested on: Bacillus anthracis; assay: Antibacterial activity against Bacillus anthracis Ames (NR-411) after 16 hrs by modified alamar blue microdilution broth assay; type: functional; conditions: Ames NR-411, 16 h
[5] = molecular target: T2, Dihydrofolate reductase (Rattus norvegicus, UniProt Q920D2); assay: Inhibition of rat DHFR
T2 sequence (Q920D2 whole entry): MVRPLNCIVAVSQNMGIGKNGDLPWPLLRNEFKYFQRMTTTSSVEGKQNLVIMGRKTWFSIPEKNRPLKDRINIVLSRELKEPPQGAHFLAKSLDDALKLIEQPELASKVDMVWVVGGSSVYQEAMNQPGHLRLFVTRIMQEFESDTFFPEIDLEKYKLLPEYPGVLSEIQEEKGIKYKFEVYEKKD

[6] = tested on: Bacillus cereus; assay: Antibacterial activity against Bacillus cereus up to 10 hrs by growth inhibition assay; type: functional
[7] = Inhibition of Bacillus cereus recombinant DHFR expressed in Escherichia coli BL21(DE3) assessed as enzyme-dependent NADPH consumption
[8] = Selectivity ratio of IC50 for human recombinant DHFR to IC50 for histidine-tagged Bacillus anthracis Sterne recombinant DHFR

Row | Structure (SMILES) | MIC [1] [µg/mL] | IC50 [2] [nM] | IC50 [3] [nM] | MIC [4] [µg/mL] | IC50 [5] [nM] | MIC50 [6] [µg/mL] | IC50 [7] [nM] | Ratio IC50 [8]
1 | COc1cc(Cc2cnc(N)nc2N)cc(/C=C/C(=O)N2N=Cc3ccccc3C2c2ccc(O)cc2)c1OC (configuration not stated) | > 128 | – | – | – | – | – | – | –
2 | COc1cc(Cc2cnc(N)nc2N)cc(/C=C/C(=O)N2N=Cc3ccccc3C2c2ccccc2)c1OCCN1CCOCC1 (configuration not stated) | ≤ 32 | > 21000 | 170 | ≤ 25.6 | – | – | – | –
3 | COc1cc(Cc2cnc(N)nc2N)cc(/C=C/C(=O)N2N=Cc3ccccc3C2c2ccc(O)cc2)c1O (configuration not stated) | > 128 | – | – | – | – | – | – | –
4 | COC(=O)C(C)(C)C1c2ccccc2C=NN1C(=O)/C=C/c1cc(Cc2cnc(N)nc2N)cc(OC)c1OC (configuration not stated) | ≤ 128 | 813000 | 300 | – | 25000 | 2.6 (≈ 4.77 µM) | 270 | –
5 | COc1cc(Cc2cnc(N)nc2N)cc(/C=C/C(=O)N2N=Cc3ccccc3C2C2CCCC2)c1OC (configuration not stated) | ≤ 25.6 | > 22000 | 200 | ≤ 12.8 | 25000 | 2.6 (≈ 5.07 µM) | 270 | > 110
6 | COc1cc(Cc2cnc(N)nc2N)cc(/C=C/C(=O)N2N=Cc3ccccc3C2C2CCCCC2)c1OC (configuration not stated) | ≤ 12.8 | > 19000 | 260 | ≤ 12.8 | 25000 | 2.6 (≈ 4.94 µM) | 270 | –
7 | CCCCC1c2ccccc2C=NN1C(=O)/C=C/c1cc(Cc2cnc(N)nc2N)cc(OC)c1OC (configuration not stated) | ≤ 12.8 | > 20000 | 170 | ≤ 12.8 | 25000 | 2.6 (≈ 5.19 µM) | 270 | > 118
8 | COc1cc(Cc2cnc(N)nc2N)cc(OC)c1OC [TRIMETHOPRIM] | > 2050 | – | – | – | – | – | – | –
9 | COc1cc(Cc2cnc(N)nc2N)cc(/C=C/C(=O)N2Cc3ccccc3C=N2)c1OC | > 128 | – | – | – | – | – | 37000 | –
10 | COc1cc(Cc2cnc(N)nc2N)cc(/C=C/C(=O)N2N=Cc3ccccc3C2c2ccc(CO)cc2)c1O (configuration not stated) | ≤ 128 | > 24000 | 69 | – | – | – | – | –
11 | COc1cc(Cc2cnc(N)nc2N)cc(/C=C/C(=O)N2N=Cc3ccccc3C2c2ccccc2)c1OC (configuration not stated) | ≤ 25.6 | > 16000 | 46 | > 51.2 | 25000 | 2.6 (≈ 4.99 µM) | 270 | > 348
12 | COc1cc(Cc2cnc(N)nc2N)cc(/C=C/C(=O)N2N=Cc3ccccc3C2c2ccc(CO)cc2)c1C(OC)OC (configuration not stated) | > 128 | – | – | – | – | – | – | –
13 | COc1ncc(C2c3ccccc3C=NN2C(=O)/C=C/c2cc(Cc3cnc(N)nc3N)cc(OC)c2OC)c(OC)n1 (configuration not stated) | ≤ 128 | > 22000 | 600 | – | – | – | – | –
14 | CCC1c2ccccc2C=NN1C(=O)/C=C/c1cc(Cc2cnc(N)nc2N)cc(OC)c1OC (configuration not stated) | ≤ 32 | > 27000 | 96 | ≤ 25.6 | 25000 | 2.6 (≈ 5.5 µM) | 270 | > 281
15 | COc1cc(Cc2cnc(N)nc2N)cc(/C=C/C(=O)N2N=Cc3ccccc3C2CCCO)c1OC (configuration not stated) | ≤ 64 | > 25000 | 120 | > 102 | 25000 | 2.6 (≈ 5.17 µM) | 270 | –
16 | CCCC1c2ccccc2C=NN1C(=O)/C=C/c1cc(Cc2cnc(N)nc2N)cc(O)c1OC (configuration not stated) | ≤ 12.8 | 110000 | 54 | ≤ 16 | 25000 | 2.6 (≈ 5.5 µM) | 270 | 2040
17 | COc1cc(Cc2cnc(N)nc2N)cc(/C=C/C(=O)N2N=Cc3ccccc3C2c2ccc(C)cc2)c1OC (configuration not stated) | ≤ 64 | > 19000 | 150 | ≤ 51.2 | 25000 | 2.6 (≈ 4.86 µM) | 270 | > 127
18 | COc1cc(Cc2cnc(N)nc2N)cc(/C=C/C(=O)N2N=Cc3ccccc3C2c2ccccc2CN(C)C)c1OC (configuration not stated) | ≤ 128 | > 42000 | 400 | – | – | – | – | –
19 | COc1cc(Cc2cnc(N)nc2N)cc(/C=C/C(=O)N2N=Cc3ccccc3C2c2ccc(CO)cc2)c1OC (configuration not stated) | ≤ 128 | > 23000 | 97 | – | – | – | – | –
20 | COc1cc(Cc2cnc(N)nc2N)cc(/C=C/C(=O)N2N=Cc3ccccc3C2c2ccccc2CO)c1OC (configuration not stated) | > 128 | – | – | – | – | – | – | –
21 | COc1cc(Cc2cnc(N)nc2N)cc(/C=C/C(=O)N2N=Cc3ccccc3C2c2ccc(O)cc2)c1C(OC)OC (configuration not stated) | > 128 | – | – | – | – | – | – | –
22 | COc1cc(Cc2cnc(N)nc2N)cc(CCC(=O)N2N=Cc3ccccc3C2C)c1OC (configuration not stated) | ≤ 64 | > 28000 | 92 | ≤ 64 | – | – | 37000 | –

Source: ChEMBL document CHEMBL1151424, “In vitro efficacy of new antifolates against trimethoprim-resistant Bacillus anthracis” (Antimicrob Agents Chemother, 2007)
